Peptide text beside a SMILES is read from it.
Experiments:
Ad-TSHR-immunized mice [1] = test: retro-orbital fibrosis by digitized image analysis of orbital sections; type: in vivo, BALB/c mice; details: 1 mg/kg IV 4-weekly, Masson's stain
Description: FIG. 6 summarizes the results of histological investigation of orbital sections. […] The sections were taken at defined distances from the mouse bregma. Interstitial connective tissue was then stained in green (Masson's trichrome stain). For clarity, both HE stained sections (left panels) and Masson's stained sections (right panels) are shown next to each other. FIG. 6B: the effects of peptide therapy on severity of retro-orbital fibrosis were evaluated in histological sections of all available animals. The measurements were carried out in Ad-TSHR-immunized mice treated by either 4-weekly injections with vehicle (0.9% NaCl, “Graves' no therapy”, n=9 mice), or administrations of 1 mg/kg body weight of peptide 836 (11 mice) or TSHR-Fc (11 mice). […] The mean total fibrosis volumes of each right and left orbita, as assessed by digitized image analysis of all sections, and consecutive integrations, are shown with SEM. […]
After euthanasia, dissection of the thyroid glands was performed under a stereomicroscope, as described before (22). […] Thyroid volumes (mm^3) were calculated from the sum of the areas of each section over the whole cutting region. Myocardial volumes (mm^3) were calculated in a similar way as described for thyroid glands from the sum of the areas of each section over whole cutting region (5 to 6 slides, depending on respective size of the hearts). […]

[2] = system: immunologically naïve mice; details: mouse, in vivo, iv, 1 mg/kg
Description: BALB/c mice were adapted for at least one week to start experiments at the age of 12 weeks. Animals were kept as described before. […] Peptides (either 1 mg/kg body weight or NaCl vehicle control) were given by IV injection into a tail vein of these naïve mice (n=5 per group), and then continued at 4-weekly intervals for 6 months, as described before for the therapeutic study in immunized mice. Serum samples were taken at identical intervals.
1) “3rd generation assay”: Antibodies against TSHR were detected by a commercially available 3rd generation enzyme immunoassay provided by RSR Limited, Avenue Park, Pentwyn, Cardiff, U.K., in which the of the human Graves patient-derived M22 monoclonal antibody and serum antibodies compete for binding sites on immobilized TSHR. […] The assay was performed using 30 μl 1:10 (PBS) diluted serum in at least double determination according to the manufacturer's instructions.

Ad-TSHR-immunized mice [3] = test: clinical signs of allergic reaction during therapy of immunized mice; type: in vivo, BALB/c mice; details: 1 mg/kg IV, had to be treated with clemastin
Description: The study protocol used three 3-weekly immunizations (“initiation”) and followed by a “maintenance” phase with further regular 4-weekly boosts until the 9th immunisation, as described before (22). Mice were randomly assigned to therapeutic groups. Therapy (either 1 mg/kg body weight peptides or 0.9% NaCl vehicle control) was given 1 week after the 4th immunization by IV injection into a tail vein, and then continued at 4-weekly intervals, as described before for the treatment of anti-β1AR (16). The fusion protein TSHR-Fc was given IV at identical times at doses of 1 mg/kg, but had to be applied together with the histamine receptor blocker clemastin (Tavegil®) at a dose of 0.02 mg per mouse (25 g body weight) to avoid clinical symptoms of allergic reaction, which had been observed in initial pilot studies of TSHR-Fc administration in mice.

[4] = system: TSHR-overexpressing CHO cells JP2626; test: ex vivo TSHR-dependent cAMP stimulation in test cells; type: cell-based, human; details: 100 μg/ml test substance, anti-TSHR-antibody positive samples
Description: In FIG. 8 the effects of peptides on anti-TSHR antibody titers (A) and on cAMP stimulation in TSHR-expressing test cells (B) were studied ex vivo (anti-TSHR-antibody positive serum samples). Each measurement was carried out in 4 samples. Results are shown as % of untreated controls with standard errors of the means (SEM). Significance was tested by analysis of variance (ANOVA) between groups, followed by LSD post-hoc testing. **p<0.001, compared to controls
To investigate effects on TSHR-dependent cAMP stimulation ex vivo, TSHR-overexpressing CHO cells JP2626 were prepared as described above. Then, 100 μg/ml peptide 829, peptide of the invention 836 or fusion protein TSHR-Fc were added to the JP2626 cells. After incubation for 2.5 hours at 37° C. the cAMP release in the medium was measured in duplicates by a competitive immunoassay ELISA (#EMSCAMPL, Thermo Fisher Scientific, Waltham, Mass., USA).

Compound | retro-orbital fibrosis (Ad-TSHR-immunized mice [1]) | anti-TSHR antibody titers in naive mice [2] | generation of anti-TSHR antibodies [2] | clinical signs of allergic reactions (Ad-TSHR-immunized mice [3]) | cAMP-stimulating potency in TSHR-expressing test cells ex vivo [4]
CC[C@H](C)[C@@H]1NC(=O)[C@H](C(C)C)NC(=O)[C@H]([C@@H](C)O)NC(=O)[C@H](CC(C)C)NC(=O)[C@H](Cc2ccc(O)cc2)NC(=O)[C@H](CCCCN)NC(=O)[C@H](CC(N)=O)NC(=O)[C@H](CCCCN)NC(=O)[C@H](CC(N)=O)NC(=O)[C@H](CC(C)C)NC(=O)[C@H](Cc2ccc(O)cc2)NC(=O)[C@H](C(C)C)NC(=O)[C@H](C)NC(=O)[C@H](CC(=O)O)NC(=O)[C@H](CC(C)C)NC(=O)[C@H](CCCCN)NC(=O)[C@H]([C@@H](C)O)NC(=O)CNC(=O)[C@H](CC(N)=O)NC(=O)[C@H](Cc2ccccc2)NC(=O)[C@H](C)NC(=O)[C@H](Cc2ccc(O)cc2)NC(=O)CNC(=O)[C@H](CC(=O)O)NC1=O [peptide 836] (cyclo(GYAFNGTKLDAVYLNKNKYLTVID)) | completely reversed | below background | not observed in any of the 6 animals | – | –
TSHR-Fc: fusion protein: first 289 amino acids of human TSH receptor (A-subunit), GGR linker and Fc portion of human IgG2 | – | – | – | clinical signs of allergic reactions | reduction of titer and activity

Source: patent US11459375B2, “Cyclic peptides for the treatment of Graves' disease” (advanceCOR GmbH, priority 2017, dated 2022)
